# Measured values as given in US5733922A, “Imidazole derivative, pharmaceutically acceptable salt thereof, and anti-ulcer drug including such derivative or salt” (Arax Co., Ltd., priority 1995, dated 1998).
# Tested on: water-immersion restraint stress-induced gastric ulcer
# Assay: Inhibitory effect on water-immersion restraint stress-induced gastric ulcer
# Format: in vivo
# Conditions: male SD rats, oral, 10 mg/kg, 7 h water-immersion restraint stress
# Experimental: Male 7-week SD rats were fasted for 24 hours, with a fast of water beginning in early morning of the day when the experiments were performed. The rats were classified into groups each consisting of five rats, such that all the groups have substantially the same average weight. Before giving a stress to the rats, the compounds of the Examples indicated in TABLE 1 were orally administered as specimen drugs to the rats, with a dose of 10 mg/kg. The rats were then kept in stress cages, and were given a stress by immersing the cages in a water bath kept at a substantially constant temperature of 23°±1° C., such that the water level was at the height of the xiphoid of the rats. Seven hours later, the specimen rats were sacrificed by ether, and the mucosa of the stomach of each rat was semi-fixed with 2% formalin. The longitudinal length of the damaged area of the gastric mucosa was measured. A sum of the measured length values of the rats of each group was calculated as an ulcer index. An anti-ulcer or ulcer inhibitory percent (%) was calculated as {1-(ulcer index of each group of specimen rats)/(ulcer index of non-specimen group)}×100.
row,Compound,Inhibitory Percent (ulcer inhibitory percent) [%]
1,"O=C1N=C(SCc2ccccn2)N/C1=C/c1ccccc1 [Example 4, 2-(2-pyridylmethylthio)-5-trans-benzylideneimidazolin-4-one]",63.3
2,"C=C1NC(SCc2ccccn2)=NC1=O [Example 5, 2-(2-pyridylmethylthio)-5-trans-methylideneimidazolin-4-one]",23.3
3,"CCC1(c2ccccc2)N=C(SCc2ccccn2)NC1=O (centres unmarked) [Example 13, 2-(2-pyridylmethylthio)-5-ethyl-5-phenylimidazolin-4-one]",46.3
4,"CN(C)c1ccccc1CSC1=NC(C)(C)C(=O)N1 [Example 16, 2-(2-dimethylaminobenzylthio)-5,5-dimethylimidazolin-4-one]",82.4
5,"CN(C)c1ccccc1CSC1=NC(=O)/C(=C\c2ccccc2)N1 [Example 18, 2-(2-dimethylaminobenzylthio)-5-trans-benzylideneimidazolin-4-one]",34.1
6,"CC1N=C(SCc2ccccc2N(C)C)NC1=O (centres unmarked) [Example 22, 2-(2-dimethylaminobenzylthio)-5-methylimidazolin-4-one]",48.9
7,"CCC1(CC)N=C(SCc2ccccc2N(C)C)NC1=O [Example 28, 2-(2-dimethylaminobenzylthio)-5,5-diethylimidazolin-4-one]",73.8
8,"CN1C(=O)C(C)(C)N=C1SCc1ccccc1N(C)C [Example 35, 1-N-methyl-2-(2-dimethylaminobenzylthio)-4,4-dimethyl-2-imidazolin-5-one]",30.6
9,"CC1(C)N=C(SCc2cccc3cccnc23)NC1=S [Example 44, 2-(8-quinolynylmethylthio)-5,5-dimethylimidazolin-4-thione]",28.8

# Tested on: hydrochloric acid.ethanol-induced gastric ulcer
# Assay: Inhibitory effect on hydrochloric acid.ethanol-induced gastric ulcer
# Format: in vivo
# Conditions: Rattus norvegicus, 1 h, male SD rats, oral, 30 min before 98% ethanol containing 200 mM hydrochloric acid, read-out: Inhibitory Percent (ulcer inhibitory percent)
# Experimental: Male SD rats of 7-week age were fasted for 24 hours, with a fast of water beginning in early morning of the day when the experiments were performed. The rats were classified into groups each consisting of five rats, such that all the groups have substantially the same average weight. Before giving hydrochloric acid.ethanol to the rats, the compounds of the Examples indicated in TABLE 2 were orally administered as specimen drugs to the rats, with a dose of 30 mg/kg. Thirty minutes later, 1 mL of 98% ethanol containing 200 mM of hydrochloric acid was orally administered to each specimen rat. One hour later, the specimen rats were sacrificed by ether, and the mucosa of the stomach of each rat was semi-fixed with 2% formalin. The longitudinal length of the damaged area of the gastric mucosa was measured, and the anti-ulcer percent values of the individual specimen drugs were calculated on the basis of the sum of the measured length values of each group of the specimen rats, in the same manner as in Example 68.
row,Compound,inhibition in vivo at 30 mg/kg [%]
1,"O=C1CN=C(SCc2ccccn2)N1 [Example 1, 2-(2-pyridylmethylthio)imidazolin-4-one]",71.9
2,"CC1(C)N=C(SCc2ccccn2)NC1=O [Example 8, 2-(2-pyridylmethylthio)-5,5-dimethylimidazolin-4-one]",93
3,"CC1N=C(SCc2ccccn2)NC1=O (centres unmarked) [Example 9, 2-(2-pyridylmethylthio)-5-methylimidazolin-4-one]",94.9
4,"CC(C)CN(C)c1ccccc1CSC1=NC(C)(C)C(=O)N1 [Example 21, 2-(2-N-isobutyl-N-methylaminobenzylthio)-5,5-dimethylimidazolin-4-one]",99.6
5,"CN(C)c1ccccc1CSC1=NC(Cc2ccccc2)C(=O)N1 (centres unmarked) [Example 23, 2-(2-dimethylaminobenzylthio)-5-benzylimidazolin-4-one]",83.6
6,"CCCCC1(CC)N=C(SCc2ccccc2N(C)C)NC1=O (centres unmarked) [Example 29, 2-(2-dimethylaminobenzylthio)-5-butyl-5-ethylimidazolin-4-one]",69.5
7,"CCC1(C)C(=O)N=C(SCc2ccccc2N(C)C)N1C(C)=O (centres unmarked) [Example 34, 1-N-acetyl-2-(2-dimethylaminobenzylthio)-5-ethyl-5-methyl-2-imidazolin-4-one]",52
8,"CN(C)c1ccccc1CSC1=NC(C)(c2ccccc2)C(=S)N1 (centres unmarked) [Example 41, 2-(2-dimethylaminobenzylthio)-5-phenyl-5-methylimidazolin-4-thione]",74.5

# Same assay, conditions: male SD rats, oral, 30 mg/kg, 30 min before 98% ethanol containing 200 mM hydrochloric acid
row,Compound,Inhibitory Percent (ulcer inhibitory percent) [%]
1,"CN(C)c1ccccc1CSC1=NC(=O)/C(=C\c2ccccc2)N1 [Example 18, 2-(2-dimethylaminobenzylthio)-5-trans-benzylideneimidazolin-4-one]",37.4

# Tested on: acetic acid-induced gastric ulcer
# Assay: Healing effect on acetic acid-induced gastric ulcer of rat
# Format: in vivo
# Conditions: male Donryu rat, oral, 50 mg/kg two times a day, 10 consecutive days; ulcer surface area
# Experimental: A male Donryu rat of 7-week age was subjected to abdominal incision to expose the stomach, with pentobarbital used as an anesthesia. Using a metal ring having an inside diameter of 10 mm, 200 μL of glacial acetic acid was applied for contact with a serosa-side part of a boundary area between the antrum and the corpus body. The abdomen of the specimen rat subjected to the glacial acetic acid was closed by an operation, and the rat was then fed in a normal way. The compound obtained in Example 16 was orally administered as a specimen drug to the specimen rat two times a day (at 9:00 a.m. and 5:00 p.m.), each time with a dose of 50 mg/kg, beginning on the day following the day on which the glacial acetic acid was applied to the rat. The oral administration continued for 10 consecutive days, with a total of 20 administrations. On the day following the last day of administration, the specimen rat was sacrificed with ether, and the ulcer portion of the rat was fixed with formalin. The surface area of the ulcer portion was measured. The healing percent (%) calculated on the basis of the measured surface area was 28.9%.
row,Compound,healing percent [%]
1,"CN(C)c1ccccc1CSC1=NC(C)(C)C(=O)N1 [Example 16, 2-(2-dimethylaminobenzylthio)-5,5-dimethylimidazolin-4-one]",28.9

# Tested on: not listed separately
# Assay: Single-dose toxicity study
# Conditions: mouse, in vivo, male ddY mice, oral, observed two weeks, read-out: median lethal dose LD50
# Experimental: Ten male ddY mice (each having a weight of 22-28 g) were used as specimen animal in a cage kept at a substantially constant temperature of 23°±1° C. and under a substantially constant humidity of 55±5%. The compound prepared in Example 39, that is, 2-(2-dimethylaminobenzylthio)-5,5-dimethylimidazolin-4-thione was used as the specimen drug. This compound was suspended in a 2% solution of polysorbate 80, and the suspension was administered to each specimen mouse, with different doses. […] On the basis of the death percent, lethal dose (LD50) which causes a 50% death was obtained as an index indicative of the single dose toxicity. The obtained median lethal dose LD50 (oral administration) was 2000 mg/kg or more. It was thus confirmed that the median lethal dose LD50 (oral administration) of the compound according to the present invention was sufficiently large, indicating a low degree of toxicity or a high degree of safety.
row,Compound,LD50 at 336 h [mg/kg]
1,"CN(C)c1ccccc1CSC1=NC(C)(C)C(=S)N1 [Example 39, 2-(2-dimethylaminobenzylthio)-5,5-dimethylimidazolin-4-thione]",≥ 2000
